# Test system: SARS-CoV-2
# Experiment: microbe, parasite or virus in culture
# Conditions: Severe acute respiratory syndrome coronavirus 2, Vero C1008, 48 h
Compound,IC50 [µM],IC50 (read-out: pIC50 (converted)) [µM]
CC1=C(C(=O)O)N2C(=O)[C@@H](NC(=O)[C@H](N)c3ccccc3)[C@H]2SC1 [CEPHALEXIN ANHYDROUS],> 20,> 20
CC(=O)O[C@@]12CO[C@@H]1C[C@H](O)[C@@]1(C)C(=O)[C@H](O)C3=C(C)[C@@H](OC(=O)[C@H](O)[C@@H](NC(=O)OC(C)(C)C)c4ccccc4)C[C@](O)([C@@H](OC(=O)c4ccccc4)[C@H]21)C3(C)C,> 20,> 20
CN1C(C(=O)Nc2nccs2)=C(O)c2ccccc2S1(=O)=O [SUDOXICAM],> 20,> 20
C=C1C(=O)OC2C[C@@]3(C)CCC[C@H](C)C3=CC12 (some centres not stated),> 20,> 20
CNC(CC(=O)O)C(=O)O (configuration not stated),> 20,> 20
c1ccc(C(CC2=NCCN2)c2ccccn2)cc1 (configuration not stated) [MIDAGLIZOLE],> 20,> 20
CC1CN(c2cc3c(cc2F)c(=O)c(C(=O)O)cn3-c2ccc(F)cc2F)CCN1 (configuration not stated) [TEMAFLOXACIN],> 20,> 20
O=C(O)CCC(=O)C(=O)O [ALPHA-KETOGLUTARIC ACID],> 20,> 20
C[C@H](CCC(=O)NCC(=O)O)[C@H]1CC[C@H]2[C@@H]3[C@H](O)C[C@@H]4C[C@H](O)CC[C@]4(C)[C@H]3C[C@H](O)[C@]12C [GLYCOCHOLIC ACID],> 20,> 20
NCCc1c[nH]cn1 [HISTAMINE],> 20,> 20
CC[N+](C)(CC)CCC[n+]1c(-c2ccccc2)c2cc(N)ccc2c2ccc(N)cc21,> 20,> 20
CN(C)CC/C=C1\c2ccccc2COc2ccccc21 [E-DOXEPIN],> 20,> 20
O=C(O)c1ccc(NC2OC(CO)C(O)C(O)C2O)cc1 (configuration not stated),> 20,> 20
Nc1nc(=O)c2nc(CNc3ccc(C(=O)N[C@@H](CCC(=O)O)C(=O)O)cc3)cnc2[nH]1 [FOLIC ACID],> 20,> 20
C[C@H](CCc1ccccc1)NC[C@H](O)c1ccc(O)c(C(N)=O)c1 [DILEVALOL],> 20,> 20
CC(C)(Cc1ccccc1)NCC(O)c1ccc(O)c(NS(C)(=O)=O)c1 (configuration not stated) [ZINTEROL],> 20,> 20
COc1c(N2CCC/C(=C(/F)CN)C2)c(F)cc2c(=O)c(C(=O)O)cn(C3CC3)c12,> 20,> 20
COC(=O)[C@]12CCC(C)(C)C[C@H]1[C@H]1C(=O)C=C3[C@@]4(C)C=C(C#N)C(=O)C(C)(C)[C@@H]4CC[C@@]3(C)[C@]1(C)CC2 [BARDOXOLONE METHYL],> 20,> 20
c1coc(CNc2ncnc3[nH]cnc23)c1 [KINETIN],> 20,> 20
CC(C)(C(=O)NCC(F)(F)C(F)(F)F)C(=O)N[C@@H]1C(=O)Nc2ccccc2-c2ccccc21 [RG-4733],> 20,> 20
CC(=O)Oc1ccc(C(c2ccc(OC(C)=O)cc2)c2ccccn2)cc1 [BISACODYL],> 20,> 20
CCC(=O)O[C@]1(C(=O)CCl)[C@@H](C)C[C@H]2[C@@H]3CCC4=CC(=O)C=C[C@]4(C)[C@@]3(F)[C@@H](O)C[C@@]21C [CLOBETASOL PROPIONATE],> 20,> 20
Cc1c(N(C)CS(=O)(=O)O)c(=O)n(-c2ccccc2)n1C [METAMIZOLE],> 20,> 20
Oc1ccc2c(c1)[C@@]13CCCC[C@@]1(O)[C@@H](C2)N(CC1CCC1)CC3 [BUTORPHANOL],> 20,> 20
Cc1nc2cccc(N)c2c(=O)n1C1CCC(=O)NC1=O (configuration not stated) [AVADOMIDE],> 20,> 20
CC(=O)[C@H]1CC[C@H]2[C@@H]3CCC4=CC(=O)CC[C@]4(C)[C@H]3CC[C@]12C [PROGESTERONE],> 20,> 20

Compound,IC50 [µM],IC50 (read-out: pIC50 (converted)) [µM]
CCC1(C)OC(=O)N(C)C1=O (configuration not stated) [PARAMETHADIONE],> 20,> 20
O=C1C(Cl)=C(Cl)C(=O)C(Cl)=C1Cl [CHLORANIL],> 20,> 20
C[C@H](NCc1ccc(OCc2ccccc2F)cc1)C(N)=O [RALFINAMIDE],> 20,> 20
CCN(CC)CCNC(C(=O)OCCC(C)C)c1ccccc1 (configuration not stated) [CAMYLOFIN],> 20,> 20
CC(=O)C1CCC2C3CCC4=CC(=O)CCC4C3CCC12C (configuration not stated),> 20,> 20
COc1ccc2cc1Oc1cc3c(cc1OC)CC[N+](C)(C)C3Cc1ccc(cc1)Oc1c(OC)c(OC)cc3c1C(C2)[N+](C)(C)CC3 (configuration not stated),> 20,> 20
c1ccc2ncccc2c1 [QUINOLINE],> 20,> 20
O=C(O)CP(=O)(O)O [FOSFONET],> 20,> 20
CC1CCC(C(C)C)C(O)C1 (configuration not stated) [MENTHOL],> 20,> 20
CC(=O)OCC(=O)[C@@]12OC(C)(C)O[C@@H]1C[C@H]1[C@@H]3C[C@H](F)C4=CC(=O)C=C[C@]4(C)[C@@]3(F)[C@@H](O)C[C@@]12C [FLUOCINONIDE],> 20,> 20
CC(=O)NCCCCCCNC(C)=O [HEXAMETHYLENEBISACETAMIDE],> 20,> 20
CC(=O)OCC(=O)[C@@]1(O)[C@H](OC(C)=O)C[C@H]2[C@@H]3CCC4=CC(=O)C=C[C@]4(C)[C@@]3(F)[C@@H](O)C[C@@]21C [TRIAMCINOLONE DIACETATE],> 20,> 20
CNc1nccc(-c2cc3cc(C(=O)N[C@@H](CN(c4ccccc4)c4ncccn4)C(N)=O)ccc3[nH]2)n1,> 20,> 20
C[C@H]1O[C@@H](Oc2c(-c3ccc(O)c(O)c3)oc3cc(O)cc(O)c3c2=O)[C@@H](O)[C@@H](O)[C@@H]1O,> 20,> 20
O=C(Nc1ccc(Oc2ccc(Cl)cc2)c(Cl)c1)c1cc(I)cc(I)c1O [RAFOXANIDE],> 20,> 20
CCc1cccc2cc(C(O)CNC(C)(C)C)oc12 (configuration not stated) [BUFURALOL],> 20,> 20
Clc1ccc(Nc2nnc(Cc3ccncc3)c3ccccc23)cc1 [VATALANIB],> 20,> 20
OC[C@H]1NC[C@@H](O)[C@@H](O)[C@@H]1O [DEOXYMANNOJIRIMYCIN],> 20,> 20
Cc1ncc(CSSCc2cnc(C)c(O)c2CO)c(CO)c1O [PYRITINOL],> 20,> 20
NC(CO)Cc1ccccc1 (configuration not stated),> 20,> 20
CC(C)CC1C(=O)N2CCCC2C2(O)OC(NC(=O)C3CC4c5cccc6[nH]cc(c56)CC4N(C)C3)(C(C)C)C(=O)N12 (configuration not stated),> 20,> 20
O=C(/C=C/c1ccc(O)c(O)c1)O[C@@H]1C[C@](O)(C(=O)O)C[C@@H](O)[C@H]1O [CHLOROGENIC ACID],> 20,> 20
CCCc1c2nc(C(=O)O)cc(NC)c2cc2c(=O)cc(C(=O)O)oc12 [MINOCROMIL],> 20,> 20
CC(=O)C1C(=O)C=C(C)OC1=O (configuration not stated) [DEHYDROACETIC ACID],> 20,> 20
C[C@]12CCC(=O)C=C1CC[C@@H]1[C@@H]2CC[C@@]2(C)[C@H]1CC[C@]2(C)O [METHYLTESTOSTERONE],> 20,> 20

# Reference: ChEMBL document CHEMBL4651402, “Screening of ~5500 FDA-approved drugs and clinical candidates for anti-SARS-CoV-2 activity” (2021)
